Laboratory results from the supplement of paper PMC10307832.

What was measured:
Assay in all cases: relative viability (nuclei count vs DMSO), 5 days (fraction); higher = more cells survive
[1] = compound: CC1=CC=C(C=C1)C(=O)CN2C3=C(CCCC3)SC2=N [Pifithrin_alpha] + N=C(N)NC(=N)NCCc1ccccc1 [Phenformin] (partner 250 µM)
Summary of the method: (§1)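 Values are medians from duplicate plates. Each reflects relative viability, defined as the nuclei count of treated wells over that of vehicle wells. Lung cancer cell lines in 1536-well plates were pin-tool dosed one day after seeding with one drug alone or with a fixed anchor-drug dose plus five library-drug doses (not always all listed) in √10 steps, then fixed, stained and imaged at 4× after 5 days.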

Bemcentinib + Tozasertib = compound: Nc1nc(Nc2ccc3c(c2)CC[C@@H](N2CCCC2)CC3)nn1-c1cc2c(nn1)-c1ccccc1CCC2 [Bemcentinib] + Cc1cc(Nc2cc(N3CCN(C)CC3)nc(Sc3ccc(NC(=O)C4CC4)cc3)n2)n[nH]1 [Tozasertib] (partner 0.1 µM)
Summary of the method: as §1

Axitinib + Crizotinib = compound: CNC(=O)c1ccccc1Sc1ccc2c(/C=C/c3ccccn3)n[nH]c2c1 [Axitinib] + C[C@@H](Oc1cc(-c2cnn(C3CCNCC3)c2)cnc1N)c1c(Cl)ccc(F)c1Cl [Crizotinib] (partner 1 µM)
Summary of the method: as §1

Axitinib + Phenformin = compound: CNC(=O)c1ccccc1Sc1ccc2c(/C=C/c3ccccn3)n[nH]c2c1 [Axitinib] + N=C(N)NC(=N)NCCc1ccccc1 [Phenformin] (partner 250 µM)
Summary of the method: as §1

| Cell Line | relative viability ([1]; first compound 1 µM) | relative viability ([1]; first compound 3.162 µM) | relative viability ([1]; first compound 10 µM) | relative viability ([1]; first compound 31.62 µM) | relative viability ([1]; first compound 100 µM) | relative viability (Bemcentinib + Tozasertib; first compound 0.04 µM) | relative viability (Bemcentinib + Tozasertib; first compound 0.1265 µM) | relative viability (Bemcentinib + Tozasertib; first compound 0.4 µM) | relative viability (Bemcentinib + Tozasertib; first compound 1.265 µM) | relative viability (Bemcentinib + Tozasertib; first compound 4 µM) | relative viability (Axitinib + Crizotinib; first compound 0.005 µM) | relative viability (Axitinib + Crizotinib; first compound 0.01581 µM) | relative viability (Axitinib + Crizotinib; first compound 0.05 µM) | relative viability (Axitinib + Crizotinib; first compound 0.1581 µM) | relative viability (Axitinib + Crizotinib; first compound 0.5 µM) | relative viability (Axitinib + Phenformin; first compound 0.005 µM) | relative viability (Axitinib + Phenformin; first compound 0.01581 µM) | relative viability (Axitinib + Phenformin; first compound 0.05 µM) | relative viability (Axitinib + Phenformin; first compound 0.1581 µM) | relative viability (Axitinib + Phenformin; first compound 0.5 µM) |
| --- | --- | --- | --- | --- | --- | --- | --- | --- | --- | --- | --- | --- | --- | --- | --- | --- | --- | --- | --- | --- |
| RERF-LC-KJ | 0.454 | 0.402 | 0.368 | 0.316 | 0.263 | 0.557 | 0.531 | 0.485 | 0.553 | 0.466 | 0.801 | 0.856 | 0.862 | 0.771 | 0.823 | 0.462 | 0.445 | 0.396 | 0.457 | 0.458 |
| NCI-H2405 | 0.371 | 0.504 | 0.481 | 0.463 | 0.479 | 0.733 | 0.783 | 0.702 | 0.74 | 0.671 | 0.822 | 0.972 | 0.831 | 0.754 | 0.852 | 0.386 | 0.435 | 0.468 | 0.399 | 0.357 |
| UMC-11 | 0.312 | 0.337 | 0.322 | 0.287 | 0.303 | 0.214 | 0.192 | 0.2 | 0.198 | 0.204 | 0.556 | 0.59 | 0.59 | 0.584 | 0.482 | 0.343 | 0.353 | 0.322 | 0.326 | 0.34 |
| PC-14 | 0.536 | 0.567 | 0.525 | 0.406 | 0.413 | 0.584 | 0.706 | 0.538 | 0.645 | 0.601 | 0.954 | 0.959 | 0.849 | 0.937 | 0.984 | 0.645 | – | 0.714 | 0.559 | 0.797 |
| HCC-78 | 0.433 | 0.727 | 0.664 | 0.645 | 0.69 | 0.43 | 0.445 | 0.421 | – | 0.355 | 0.345 | 0.35 | 0.301 | 0.338 | 0.375 | 0.67 | 0.667 | 0.752 | 0.657 | 0.474 |
| A-427 | 0.318 | 0.305 | 0.245 | 0.235 | 0.264 | 0.192 | 0.192 | 0.197 | 0.213 | 0.201 | 1 | 0.958 | 0.82 | 0.898 | 0.901 | 0.356 | 0.29 | 0.416 | 0.323 | 0.289 |
| HCC-827 | 0.438 | 0.432 | 0.414 | 0.409 | 0.395 | 0.474 | 0.458 | 0.421 | 0.408 | 0.417 | 0.882 | 0.905 | 0.914 | 0.886 | 0.943 | 0.408 | 0.4 | 0.419 | 0.381 | 0.459 |
| ABC-1 | 0.251 | 0.218 | 0.227 | 0.255 | 0.227 | 0.16 | 0.175 | 0.187 | 0.193 | 0.162 | 1.21 | 1.28 | 1.2 | 1.13 | 1.28 | 0.268 | 0.239 | 0.222 | 0.21 | 0.241 |
| EPLC-272H | 0.266 | 0.305 | 0.364 | 0.246 | 0.222 | 0.281 | 0.207 | 0.249 | 0.252 | 0.261 | 0.893 | 0.989 | 0.76 | 0.986 | 0.937 | 0.324 | 0.326 | 0.341 | 0.279 | 0.304 |
| SK-MES-1 | 0.571 | 0.67 | 0.659 | 0.474 | 0.571 | 0.977 | 0.908 | 1.09 | 1.03 | 0.968 | 1.06 | 0.974 | 1.07 | 1.02 | 1.11 | 0.65 | 0.653 | 0.654 | 0.631 | 0.738 |
| NCI-H520 | 0.579 | 0.554 | 0.566 | – | 0.581 | 0.526 | 0.379 | 0.411 | 0.452 | 0.484 | 0.72 | 0.829 | 0.734 | 0.542 | 0.776 | 0.489 | 0.404 | 0.655 | 0.362 | 0.386 |
| BEN | 0.296 | 0.595 | 0.276 | 0.246 | 0.289 | 0.464 | 0.446 | 0.569 | 0.579 | 0.461 | 0.897 | 1.04 | 0.788 | 0.807 | 0.925 | 0.268 | 0.29 | 0.246 | 0.236 | 0.262 |
| LK-2 | 0.352 | 0.571 | 0.563 | – | 0.466 | 0.166 | 0.164 | 0.19 | 0.178 | 0.168 | 0.235 | 0.264 | 0.252 | 0.219 | 0.216 | 0.674 | 0.202 | 0.481 | 0.353 | 0.293 |
| NCI-H2087 | 0.356 | 0.488 | 0.485 | – | 0.451 | 0.226 | 0.251 | 0.276 | 0.28 | 0.252 | 0.986 | 0.912 | 0.914 | 0.767 | 0.825 | 0.48 | 0.418 | 0.51 | 0.444 | 0.563 |
| NCI-H661 | 0.24 | 0.29 | 0.292 | 0.308 | 0.282 | 0.357 | 0.344 | 0.338 | 0.34 | 0.339 | 0.976 | 1.03 | 0.995 | 1.02 | 1.08 | 0.281 | 0.29 | 0.271 | 0.267 | 0.285 |
| NCI-H2170 | 0.411 | 0.41 | 0.376 | 0.321 | 0.358 | 0.73 | 0.764 | 0.763 | 0.658 | 0.644 | 1.2 | 1.18 | 1.27 | 1.1 | 1.35 | 0.435 | 0.412 | 0.468 | 0.415 | 0.5 |
